Counter-ions that a name gives are not always drawn. Like-named read-outs stand apart in the source and are kept apart here.

Data set [1] relates to platelet aggregation. Nature of the data set: Inhibition of platelet aggregation in vitro (rat blood).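 On Inhibition of platelet aggregation in vitro (rat blood) in μM: aggregation induced by ADP added as 4 µL of a 250 µM solution.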 The data set is classed as cell-based. The gist of the method:
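Platelet-rich plasma from male Sprague-Dawley rats (250-300 g), prepared by centrifugation at 300 g for 5 minutes. Aggregation measured at 37° C in an aggregometer. Percentage inhibition derived from area under the absorbance curve over 6 minutes.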

For data set [2], the system named is platelet aggregation. As to the kind of experiment: Inhibition of platelet aggregation ex vivo (rat blood). The data set is classed as in vivo. As to conditions: for inhibition at 10 mg/kg: read-out: Inhibition of platelet aggregation ex vivo (rat blood) in %, Gavage (oral) 10 mg/kg. The method, then:
Inhibition of Platelet Aggregation Ex Vivo (Rat Blood)
Male rats of the Sprague-Dawley strain, weighing 250-300 g, are used at a rate of 6 animals per batch. Each test compound is diluted in a solution of glucose-containing water (glucose 5%) containing 5% of cremophore and 3% of glycofurol.
The compounds according to the invention are administered by stomach tube (10 ml/kg at 1 mg/ml) two hours before taking the sample or by infusion (1 ml/kg at 10 mg/ml) two hours before taking the sample.
The platelet-rich plasma (PRP) is obtained by centrifugation of the blood at 300 g for 5 minutes, and the measurements of platelet aggregation are performed as described above.
The results are calculated using the area under the curve of absorbance measured for 6 minutes, and expressed as percentage (%) of inhibition.

Where [3] appears, read: rat blood, in vitro, read-out: Inhibition of platelet aggregation in vitro (rat blood).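 On Inhibition of platelet aggregation in vitro (rat blood) in μM: aggregation induced by ADP added as 4 µL of a 250 µM solution.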
Where [4] appears, read: rat, gavage (oral), 10 mg/kg, two hours before taking the sample.
[5] abbreviates: rat, 10 mg/kg, two hours before taking the sample.
Where [6] appears, read: 0.1 h, rat platelet-rich plasma, ADP-induced aggregation, area under the curve of absorbance for 6 minutes, read-out: Inhibition of platelet aggregation in vitro (rat blood).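 On Inhibition of platelet aggregation in vitro (rat blood) in μM: aggregation induced by ADP added as 4 µL of a 250 µM solution.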
Where [7] appears, read: Platelet, 2 h, rat, gavage (oral), 10 mg/kg, two hours before taking the sample.
Setting [8] is: rat platelet-rich plasma, ADP-induced aggregation, area under the curve of absorbance for 6 minutes, read-out: Inhibition of platelet aggregation in vitro (rat blood).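 On Inhibition of platelet aggregation in vitro (rat blood) in μM: aggregation induced by ADP added as 4 µL of a 250 µM solution.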
Where [9] appears, read: Rattus norvegicus, Platelet, 0.1 h, read-out: Inhibition of platelet aggregation in vitro (rat blood) in μM.
[10] abbreviates: Rattus norvegicus, Platelet, po, 2 h.

On to `CCCC(=O)c1cnn(-c2ccc(NC(=O)c3cn(CC(=O)N4CCN(C)CC4C)c4ccc(Cl)cc34)cc2)c1C.Cl` (stereo not drawn) [Compound 177], for which the IC50 in the data set on platelet aggregation [1] (setting [3]) was 0.37 µM. Also, the “Inhibition of platelet aggregation ex vivo (rat blood) in %, Gavage (oral) 10 mg/kg” value (from here on “Inhibition … in %, Gavage (oral) 10 mg/kg”) in the data set on platelet aggregation [2] (setting [4]) is on record as 63.9%.
As to `CCCC(=O)c1cnn(-c2ccc(NC(=O)c3cn(CC(=O)N4CCN(C)CC4)c4cc(C)c(C)cc34)cc2)c1C.Cl` [Compound 107], the IC50 in the data set with platelet aggregation [1] (setting [3]) turned out to be 0.3 µM. For the same compound, the “Inhibition … in %, Gavage (oral) 10 mg/kg” value with platelet aggregation [2] (setting [4]) is reported as 36.8%. Further, the “Inhibition of platelet aggregation ex vivo (rat blood) in %, Infusion (Intravenous) 10 mg/kg” value with platelet aggregation [2] (setting [5]) is 57.8%.
With `CCCC(=O)c1cnn(-c2ccc(NC(=O)c3cn(CC(=O)N4CCN5CCN(C)C(=O)C5C4)c4ccc(Cl)cc34)cc2)c1C` (stereo not drawn) [Compound 274, N-[4-(4-Butyryl-5-methyl-1H-pyrazol-1-yl)phenyl]-5-chloro-1-[2-(8-methyl-9-oxooctahydro-2H-pyrazino[1,2-a]pyrazin-2-yl)-2-oxoethyl]-1H-indole-3-carboxamide hydrochloride], the IC50 in the data set with platelet aggregation [1] (setting [6]) amounted to 0.1 µM. Besides, the inhibition at 10 mg/kg in the data set on platelet aggregation [2] (setting [7]) was found to be 82.7%.
On to `CCCC(=O)c1cnn(-c2ccc(NC(=O)c3cn(CC(=O)N4CCN(CCF)CC4)c4ccc(Cl)cc34)cc2)c1C.Cl` [Compound 142], for which the IC50 in the data set on platelet aggregation [1] (setting [3]) was determined as 0.13 µM. Besides, the “Inhibition … in %, Gavage (oral) 10 mg/kg” value in the data set on platelet aggregation [2] (setting [4]) came to 76.5%.
`CCCC(=O)c1cnn(-c2ccc(NC(=O)c3cn(CC(=O)N4CCN(CCOC)CC4)c4ccc(Cl)cc34)cc2)c1C` [Compound 105, N-[4-(4-Butyryl-5-methyl-1H-pyrazol-1-yl)phenyl]-5-chloro-1-{2-[4-(2-methoxyethyl)piperazin-1-yl]-2-oxoethyl}-1H-indole-3-carboxamide hydrochloride]: the IC50 with platelet aggregation [1] (Platelet, rat blood, in vitro, read-out: Inhibition of platelet aggregation in vitro (rat blood)) is 0.32 µM. The inhibition at 10 mg/kg with platelet aggregation [2] (setting [7]) was 67.9%.
As for `CCCC(=O)c1cnn(-c2ccc(NC(=O)c3cn(CC(=O)O)c4ccc(C)cc34)cc2)c1C` [Compound 11], in the data set on platelet aggregation [1] (setting [8]), the IC50 was found to be 9.6 µM. Further, in the data set with platelet aggregation [2] (setting [5]), the “Inhibition of platelet aggregation ex vivo (rat blood) in %, Infusion (Intravenous) 10 mg/kg” value worked out at 40.7%.
In the case of `CCCC(=O)c1cnn(-c2ccc(NC(=O)c3cn(CC(=O)N4CCN(C)CC4)c4ccc(Cl)cc34)cc2)c1C.Cl` [Compound 115], the IC50 in the data set on platelet aggregation [1] (setting [3]) amounted to 0.32 µM. Moreover, the “Inhibition … in %, Gavage (oral) 10 mg/kg” value with platelet aggregation [2] (setting [4]) is recorded as 50.6%. In the data set on platelet aggregation [2] (setting [5]), the “Inhibition of platelet aggregation ex vivo (rat blood) in %, Infusion (Intravenous) 10 mg/kg” value is recorded as 78.2%.
Consider `CCCC(=O)c1cnn(-c2ccc(NC(=O)c3cn(CC(=O)N4CCN(C)CC4)c4ccc(Cl)cc34)c(C#N)c2)c1C` [Compound 219], for which the IC50 in the data set on platelet aggregation [1] (setting [3]) was found to be 0.54 µM. In the data set with platelet aggregation [2] (setting [4]), the “Inhibition … in %, Gavage (oral) 10 mg/kg” value came out at 65.1%.
Usually melting point stands for the temperature, or range, at which the solid turns liquid. Take `CCCC(=O)c1cnn(-c2ccc(NC(=O)c3cn(CC(=O)N4CCN(CCOC(C)=O)CC4)c4ccc(Cl)cc34)cc2)c1C.Cl` [Compound 275, 2-{4-[(3-{[4-(4-Butyryl-5-methyl-1H-pyrazol-1-yl)phenyl]carbamoyl}-5-chloro-1H-indol-1-yl)acetyl]piperazin-1-yl}ethyl acetate hydrochloride]: the melting point is 160 °C. In addition, in the data set on platelet aggregation [1] (setting [6]), the IC50 is 0.2 µM.
As to `CCCC(=O)c1cnn(-c2ccc(NC(=O)c3cn(CC(=O)N4CCN(CCOC)CC4)c4ccc(Cl)cc34)nn2)c1C` [Compound 29, N-[6-(4-Butyryl-5-methyl-1H-pyrazol-1-yl)pyridazin-3-yl]-5-chloro-1-{2-[4-(2-methoxyethyl)piperazin-1-yl]-2-oxoethyl}-1H-indole-3-carboxamide hydrochloride], the IC50 with platelet aggregation [1] (setting [9]) was 0.08 µM. Besides, the inhibition at 1 mg/kg with platelet aggregation [2] (Rattus norvegicus, Platelet, iv, 2 h, read-out: Inhibition of platelet aggregation ex vivo (rat blood) in %, Infusion (Intravenous) 1 mg/kg) was 76%. Further, the inhibition at 10 mg/kg in the data set on platelet aggregation [2] (setting [10]) is 86.3%.
Take `CCCC(=O)c1cnn(-c2ccc(NC(=O)c3cn(CC(=O)N4CCN(CCOCCOC)CC4)c4ccc(Cl)cc34)cc2)c1C.Cl` [Compound 145]: in the data set on platelet aggregation [1] (setting [3]), the IC50 amounted to 0.25 µM. In addition, the “Inhibition … in %, Gavage (oral) 10 mg/kg” value with platelet aggregation [2] (setting [4]) came out at 53.7%.
On the same counts, the results for `CCCC(=O)c1cnn(-c2ccc(NC(=O)c3cn(CC(=O)N4CCN(C(C)COC)CC4)c4ccc(Cl)cc34)cc2)c1C.Cl` (stereo not drawn) [Compound 179] are 0.17 µM and 76.1%.
As to `CCCC(=O)c1cnn(-c2ccc(NC(=O)c3cn(CC(=O)N4CCN(C)CC4)c4ccc(Cl)cc34)nn2)c1C` [Compound 28, N-[6-(4-Butyryl-5-methyl-1H-pyrazol-1-yl)pyridazin-3-yl]-5-chloro-1-[2-(4-methylpiperazin-1-yl)-2-oxoethyl]-1H-indole-3-carboxamide hydrochloride], the IC50 with platelet aggregation [1] (setting [9]) came to 0.06 µM. Also, the inhibition at 3 mg/kg in the data set with platelet aggregation [2] (Rattus norvegicus, Platelet, iv, 2 h, read-out: Inhibition of platelet aggregation ex vivo (rat blood) in %, Infusion (Intravenous) 3 mg/kg) was found to be 79%. Further, the inhibition at 10 mg/kg in the data set on platelet aggregation [2] (setting [10]) was determined as 73.5%.
Consider `CCCC(=O)c1cnn(-c2ccc(NC(=O)c3cn(CC(=O)N4CCN(CCF)CC4)c4ccc(C)cc34)cc2)c1C.Cl` [Compound 133], for which the IC50 with platelet aggregation [1] (setting [3]) turned out to be 0.32 µM. Moreover, the “Inhibition … in %, Gavage (oral) 10 mg/kg” value in the data set with platelet aggregation [2] (setting [4]) is given as 74.2%.
On the same counts, the results for `CCCC(=O)c1cnn(-c2ccc(NC(=O)c3cn(CC(=O)N4CCN(C(C)(C)COC)CC4)c4ccc(Cl)cc34)cc2)c1C.Cl` [Compound 180] are 0.24 µM and 65.1%.
In the case of `CCCC(=O)c1cnn(-c2ccc(NC(=O)c3cn(CC(=O)N4CCN5CCNC(=O)C5C4)c4ccc(Cl)cc34)cc2)c1C.Cl` (stereo not drawn) [Compound 273, N-[4-(4-Butyryl-5-methyl-1H-pyrazol-1-yl)phenyl]-5-chloro-1-[2-oxo-2-(9-oxooctahydro-2H-pyrazino[1,2-a]pyrazin-2-yl)ethyl]-1H-indole-3-carboxamide hydrochloride], the melting point turned out to be 230 °C. In addition, in the data set with platelet aggregation [1] (setting [6]), the IC50 was determined as 0.29 µM.
Regarding `CCCC(=O)c1cnn(-c2ccc(NC(=O)c3cn(CC(=O)N4CCN(Cc5cc(C)on5)CC4)c4ccc(Cl)cc34)cc2)c1C.Cl` [Compound 166], the “Inhibition … in %, Gavage (oral) 10 mg/kg” value with platelet aggregation [2] (setting [4]) was 72.0%.
Turning to `CCCC(=O)c1cnn(-c2ccc(NC(=O)c3cn(CC(=O)N4CCCC4C(F)(F)F)c4ccc(Cl)cc34)cc2)c1C` (stereo not drawn) [Compound 170], in the data set with platelet aggregation [1] (setting [3]), the IC50 came out at 0.12 µM. The “Inhibition … in %, Gavage (oral) 10 mg/kg” value in the data set with platelet aggregation [2] (setting [4]) is listed as 71.5%.
For `CCCC(=O)c1cnn(-c2ccc(NC(=O)c3cn(CC(=O)N4CC(C)N(CCOC)C(C)C4)c4ccc(Cl)cc34)cc2)c1C.Cl` (stereo not drawn), the melting point was determined as 187 °C.
On to `CCCC(=O)c1cnn(-c2ccc(NC(=O)c3cn(CC(=O)N4CCN(CCOC)CC4)c4ccc(C)cc34)cc2)c1C.Cl` [Compound 119], for which, in the data set on platelet aggregation [1] (setting [3]), the IC50 came to 0.18 µM. The “Inhibition … in %, Gavage (oral) 10 mg/kg” value with platelet aggregation [2] (setting [4]) was determined as 61.1%.
In turn, `CCCC(=O)c1cnn(-c2ccc(NC(=O)c3cn(CC(=O)N4CC(C)N(C)C(C)C4)c4ccc(Cl)cc34)cc2)c1C.Cl` (stereo not drawn) [Compound 262, N-[4-(4-Butyryl-5-methyl-1H-pyrazol-1-yl)phenyl]-5-chloro-1-[2-oxo-2-(3,4,5-trimethylpiperazin-1-yl)ethyl]-1H-indole-3-carboxamide hydrochloride] showed a melting point of 217 °C. For the same compound, the inhibition at 10 mg/kg with platelet aggregation [2] (setting [7]) came out at 58.8%.
Regarding `CCCC(=O)c1cnn(-c2ccc(NC(=O)c3cn(CC(=O)N4CCN(C)C(C(=O)NC)C4)c4ccc(Cl)cc34)cc2)c1C` (stereo not drawn) [Compound 272, N-[4-(4-butyryl-5-methyl-1H-pyrazol-1-yl)phenyl]-5-chloro-1-{2-[4-methyl-3-(methylcarbamoyl)piperazin-1-yl]-2-oxoethyl}-1H-indole-3-carboxamide], the melting point came to 274 °C. Also, the IC50 in the data set with platelet aggregation [1] (setting [6]) worked out at 0.21 µM.
Regarding `CCCC(=O)c1cnn(-c2ccc(NC(=O)c3cn(CC(=O)N4CCC(O)CC4)c4ccc(Cl)cc34)nn2)c1C` [Compound 68], the IC50 in the data set with platelet aggregation [1] (setting [8]) amounted to 0.07 µM.
The same measure, in the same setting: next, `CCCC(=O)c1cnn(-c2ccc(NC(=O)c3cn(CC(=O)N4CCC(CCO)CC4)c4ccc(Cl)cc34)nn2)c1C` [Compound 50]: 0.05 µM.
As to `CCCC(=O)c1cnn(-c2ccc(NC(=O)c3cn(CC(=O)N4CCN(Cc5ccc(F)cc5)CC4)c4ccc(C)cc34)cc2)c1C.Cl` [Compound 147], the IC50 with platelet aggregation [1] (setting [3]) was determined as 0.19 µM. For the same compound, the “Inhibition … in %, Gavage (oral) 10 mg/kg” value with platelet aggregation [2] (setting [4]) amounted to 74.9%.
For `CCCC(=O)c1cnn(-c2ccc(NC(=O)c3cn(CC(=O)N4CCc5[nH]ncc5C4)c4ccc(Cl)cc34)cc2)c1C` [Compound 173], the IC50 with platelet aggregation [1] (setting [3]) worked out at 0.17 µM.
Turning to `CCCC(=O)c1cnn(-c2ccc(NC(=O)c3cn(CC(=O)N4CCNC(CO)C4)c4ccc(C)cc34)cc2)c1C` (stereo not drawn) [Compound 249], the IC50 in the data set on platelet aggregation [1] (setting [8]) came out at 0.24 µM.
Still for that read-out and setting: next, `CCCC(=O)c1cnn(-c2ccc(NC(=O)c3cn(CC(=O)N(C)CCCO)c4ccc(Cl)cc34)nn2)c1C` [Compound 72]: 0.06 µM.
For the compound `CCCC(=O)c1cnn(-c2ccc(NC(=O)c3cn(CC(=O)N4CC5CC4CN5C4CCC4)c4ccc(Cl)cc34)cc2)c1C` (stereo not drawn) [Compound 214], the IC50 in the data set with platelet aggregation [1] (setting [3]) worked out at 0.66 µM.

The record behind these values is patent publication US8623862B2, “Derivatives of N-[(1H-pyrazol-1-yl)aryl]-1H-indole or 1H-indazole-3-carboxamide, preparation thereof and applications thereof in therapeutics” (Sanofi, priority 2011, dated 2014).
